The subject of series [1] is type II diabetic patients. Nature of the series: Clinical study in type II diabetic patients. Type of series: in vivo, human. As for the experimental part:
Using the pharmaceutical composition described in Example 1, a clinical study was conducted in type II diabetic patients under the following conditions.
Test drug and Mode of administration: Every patient orally administered either of a combination selected from the following combination groups (one tablet from each) three times a day just before meals (within 5 minutes before starting meal): • The present invention group: (1)+(4) • Positive control group: (2)+(3) • Positive control group: (3)+(4) • (1) a tablet comprising 10 mg of mitiglinide calcium salt hydrate; • (2) a tablet comprising 0.2 mg of voglibose (chemical name: (+)-1L-[1(OH),2,4,5/3]-5-[2-hydroxy-1-(hydroxymethyl)ethyl]amino-1-C-(hydroxymethyl)-1,2,3,4-cyclohexaneterol); • (3) a placebo tablet of mitiglinide calcium salt hydrate not containing any active ingredient; and • (4) a placebo tablet of voglibose not containing any active ingredient. • Treatment period: 12 weeks • Observation item: The following items were measured before administration, at a certain fixed time after the start of administration and at the completion of administration, and their changes were calculated, or the frequency of adverse drug reactions was calculated, and then evaluated.

Series [2] concerns healthy male adults. Nature of the series: Clinical study on administration timing. The format is in vivo, human. As for the experimental part:
Administration timing before taking a meal was evaluated in healthy male adults. Used test drugs were a tablet comprising 10 mg of mitiglinide calcium salt hydrate and a placebo tablet. The tablet comprising 10 mg of mitiglinide calcium salt hydrate was administered at 0.5 min, 5 min, 10 min or 30 min before starting meal (Positive group), while the placebo tablet was administered at 0.5 min before starting meal. After administration, blood glucose levels were measured at starting meal and evaluated.

Where [3] appears, read: in comparison with voglibose and placebo.

The text below walks through data of patent publication US20050267195A1, “Drug composition for blood sugar control” (priority 2002, published 2005).

Where a name gives a salt, the structure may show the parent alone.

For `OCC(CO)N[C@H]1C[C@](O)(CO)[C@@H](O)[C@H](O)[C@H]1O` [voglibose, (+)-1L-[1(OH),2,4,5/3]-5-[2-hydroxy-1-(hydroxymethyl)ethyl]amino-1-C-(hydroxymethyl)-1,2,3,4-cyclohexaneterol, reference compound], the “Change in 2 hour value of PPG, mean value” in series [1] (final evaluation, three times a day just before meals, 12 weeks) was -5.1 mg/dL. The “effect on HbA1C value (in words)” value in series [1] (in comparison with placebo) is reported as “significantly lowered HbA1C value”.
On to `O=C(O)[C@H](CC(=O)N1C[C@H]2CCCC[C@H]2C1)Cc1ccccc1` [mitiglinide calcium salt hydrate, (+)-monocalcium bis[(2S,3a,7a-cis)-α-benzylhexahydro-γ-oxo-2-isoindolinebutyrate] dihydrate], for which the “effect on HbA1C value (in words)” value in series [1] (after 4 weeks after the start of administration, in comparison with voglibose and placebo) was “significantly lowered HbA1C value”. In addition, the “frequencies of hypoglycemic symptoms and gastrointestinal disorders (in words)” value in series [1] (human, in vivo) was “decreased the frequencies of hypoglycemic symptoms and gastrointestinal disorders”. In addition, in series [1] (setting [3]), the “effect on 1 hour and 2 hour values of postprandial plasma glucose (PPG) (in words)” value was “significantly lowered 1 hour and 2 hour values of postprandial plasma glucose (PPG)”; the “effect on early morning fasting plasma glucose (FPG) (in words)” value is reported as “significantly lowered early morning fasting plasma glucose (FPG)”. Also, in series [2] (administered at 30 minutes before starting meal), the “blood glucose level at starting meal (in words)” value is “notably declined”. Also, the “blood glucose level at starting meal (in words)” value in series [2] (administrated within 10 minutes before starting meal) is listed as “able to maintain good blood glucose level”.
